Assay [1] in a line: PHF8 Assay: The ability of test compounds to inhibit the activity of PHF8 was determined in 384-well plate format under the following reaction conditions: 3 nM PHF8, 200 nM H3K9me1-biotin labeled peptide (Anaspec cat #64358), 0.5 μM alpha-ketoglutaric acid in assay buffer of 50 mM HEPES, pH7.3, 0.005% Brij35, 0.5 mM TCEP, 0.2 mg/ml BSA, 50 μM sodium L-ascorbate, and 5 μM ammonium iron(II) sulfate. Reaction product was determined quantitatively by TR-FRET after the addition of detection reagent Phycolink Streptavidin-allophycocyanin (Prozyme) and Europium-anti-unmodified-histone H3 lysine 9/lysine27 (H3K9/K27) antibody (PerkinElmer) in the presence of 5 mM EDTA in LANCE detection buffer (PerkinElmer) at a final concentration of 25 nM and 0.5 nM, respectively.The assay reaction was initiated by the following: 2 μl of the mixture of 600 nM H3K9me1-biotin labeled peptide and 1.5 μM alpha-ketoglutaric acid with 2 μl of 11-point serial diluted inhibitor in 3% DMSO were added to each well of the plate, followed by the addition of 2 μl of 9 nM PHF8 to initiate the reaction. The reaction mixture was incubated at room temperature for 15 minutes, and terminated by the addition of 6 μl of 5 mM EDTA in LANCE detection buffer containing 50 nM Phycolink Streptavidin-allophycocyanin and 1 nM Europium-anti-unmodified H3K9/K27 antibody. Plates were read by EnVision Multilabel Reader in TR-FRET mode (excitation at 320 nm, emission at 615 nm and 665 nm) after 1 hour incubation at room temperature. A ratio was calculated (665/615) for each well and fitted to determine inhibition constant (IC50).

The nature of assay [2]: FBXL11 Assay: The ability of test compounds to inhibit the activity of FBXL11 was determined in 384-well plate format under the following reaction conditions: 0.15 nM FBXL11, 30 nM H3K36me2-biotin labeled peptide (Anaspec cat #64442), 0.2 μM alpha-ketoglutaric acid in assay buffer of 50 mM HEPES, pH7.3, 0.005% Brij35, 0.5 mM TCEP, 0.2 mg/ml BSA, 50 μM sodium L-ascorbate, 5 μM ammonium iron(II) sulfate. Reaction product is determined quantitatively by AlphaScreen detection after the addition of detection reagents anti-H3K36me1 antibody, AlphaScreen® Streptavidin-coated Donor beads, and AlphaScreen® Protein A Acceptor beads in 50 mM HEPES, pH7.3, 10 mM NaCl, 0.005% Brij35, 5 mM EDTA, 2 mg/ml BSA to final 10 μg/ml beads.The assay reaction was initiated by the following: 3 μl of the mixture of 90 nM H3K36me2-biotin labeled peptide and 0.6 μM alpha-ketoglutaric acid with 3 μl of 11-point serial diluted inhibitor in 3% DMSO are added to each well of 384 well Proxiplate (Perkin Elmer), followed by the addition of 3 μl of 0.45 nM FBXL11 to initiate the reaction. The reaction mixture is incubated at room temperature for 1 hour, and terminated by the addition of 3 μl of appropriate dilution of anti H3K36me1 antibody in 50 mM HEPES, pH7.3, 10 mM NaCl, 0.005% Brij35, 5 mM EDTA, 2 mg/ml BSA. Plates will then incubated at room temperature for 40 minutes, followed by addition of 3 ul of 50 μg/ml AlphaScreen® Streptavidin-coated Donor beads and AlphaScreen® Protein A Acceptor beads in 50 mM HEPES, pH7.3, 10 mM NaCl, 0.005% Brij35, 5 mM EDTA, 2 mg/ml BSA. Plates will then be read by EnVision Multilabel Reader in AlphaScreen mode after minimum 2 hour incubation at room temperature. The AlphaScreen signal for each well is used to determine inhibition constant (IC50).

The source of these data is ChEMBL document CHEMBL5725614, “Histone demethylase inhibitors” (2018).

For `FC(F)(F)COc1ccccc1CCn1cnc(-c2cc(-c3c[nH]nn3)ccn2)c1`, in assay [1], the IC50 result was “in the range around 0.55 µM”.

In the case of `N#Cc1[nH]nnc1-c1ccnc(-c2cn(Cc3ccccc3Cl)cn2)c1`, the IC50 result in assay [1] was “in the range around 5.5 µM”. Still for that read-out and setting: next, `FC(F)(F)Oc1ccccc1CCn1cnc(-c2cc(-c3c[nH]nn3)ccn2)c1`: “in the range around 0.55 µM”; `COc1cccc(Cn2cnc(-c3cc(-c4c[nH]nn4)ccn3)c2)c1F`: “in the range around 0.55 µM”; `N#Cc1[nH]nnc1-c1ccnc(-c2cn(CC3CCCc4ccccc43)cn2)c1` (stereo not drawn): “in the range around 0.55 µM”. Consider `CCOc1ccccc1CCn1cnc(-c2cc(-c3c[nH]nn3)ccn2)c1`, for which the IC50 result in assay [1] is “in the range around 0.55 µM”. Consider `Clc1ccc(Cn2cnc(-c3cc4[nH]nnc4cn3)c2)cc1`, for which, in assay [1], the IC50 result is “in the range around 5.5 µM”.

As to `Clc1[nH]nnc1-c1ccnc(-c2cn(CCc3cccc4ccccc34)cn2)c1`, in assay [1], the IC50 result is “in the range around 5.5 µM”.

Take `CC(c1ccccc1)n1cnc(-c2cc(-c3c[nH]nn3)ccn2)c1` (stereo not drawn): in assay [1], the IC50 result was “in the range around 0.55 µM”.

As to `c1ccc2c(CCn3cnc(-c4cc(-c5c[nH]nn5)ccn4)c3)cccc2c1`, in assay [1], the IC50 entry was “in the range around 0.55 µM”. The same measure, in the same setting: the entry for `c1ccc(Oc2ccccc2CCn2cnc(-c3cc(-c4c[nH]nn4)ccn3)c2)cc1` is “in the range around 5.5 µM”.

On to `FC(F)(F)c1ccccc1CCn1cnc(-c2cc(-c3c[nH]nn3)ccn2)c1`, for which the IC50 result in assay [1] is “in the range around 0.55 µM”. Same read-out and setting: next, `Clc1cccc(Cn2cnc(-c3cc(-c4nn[nH]c4I)ccn3)c2)c1Cl`: “in the range around 0.55 µM”; `COc1cc(-c2c(-c3cc(-c4c[nH]nn4)ccn3)ncn2C)ccc1F`: “in the range around 0.55 µM”. Still for that read-out and setting: next, `CC(Cc1ccccc1)n1cnc(-c2cc(-c3c[nH]nn3)ccn2)c1` (stereo not drawn): “in the range around 5.5 µM”; `Fc1c(Cn2cnc(-c3cc(-c4c[nH]nn4)ccn3)c2)cccc1OC(F)(F)F`: “in the range around 5.5 µM”.

Take `c1ccc(-c2ccccc2CCn2cnc(-c3cc(-c4c[nH]nn4)ccn3)c2)cc1`: in assay [1], the IC50 result was “in the range around 5.5 µM”.

Consider `Clc1ccccc1Cn1cnc(-c2cc3[nH]nnc3cn2)c1`, for which the IC50 entry in assay [1] was “in the range around 5.5 µM”.

For the compound `FC(F)(F)c1cccc(Cn2cnc(-c3cc(-c4c[nH]nn4)ccn3)c2)c1Cl`, the IC50 entry in assay [1] is “in the range around 0.55 µM”. Same read-out and setting: next, `Cn1cnc(-c2cc(-c3c[nH]nn3)ccn2)c1-c1ccc(F)cc1`: “in the range around 0.55 µM”. For `CCOc1cc(-c2c(-c3cc(-c4c[nH]nn4)ccn3)ncn2C)ccc1F`, the IC50 entry in assay [1] was “in the range around 5.5 µM”; in assay [2], “in the range around 0.55 µM”. For the compound `c1ccc(COc2ccccc2CCn2cnc(-c3cc(-c4c[nH]nn4)ccn3)c2)cc1`, in assay [1], the IC50 result is “in the range around 5.5 µM”. Still for that read-out and setting: next, `COc1ccccc1CCn1cnc(-c2cc(-c3c[nH]nn3)ccn2)c1`: “in the range around 0.55 µM”; `c1nc(-c2cn(CC3CC3)cn2)cc2[nH]nnc12`: “in the range around 5.5 µM”. For the compound `c1ccc(OCC2CC2)c(CCn2cnc(-c3cc(-c4c[nH]nn4)ccn3)c2)c1`, the IC50 result in assay [1] was “in the range around 0.55 µM”.

For `N#Cc1[nH]nnc1-c1ccnc(-c2cn(Cc3cccc(Cl)c3Cl)cn2)c1`, the IC50 entry in assay [1] is “in the range around 5.5 µM”. Same read-out and setting: next, `Cn1cnc(-c2cc(-c3c[nH]nn3)ccn2)c1-c1ccc(F)cc1OCC1CC1`: “in the range around 5.5 µM”; `c1ccc(Cn2cnc(-c3cc4[nH]nnc4cn3)c2)cc1`: “in the range around 0.55 µM”. Take `Cn1cnc(-c2cc3[nH]nnc3cn2)c1-c1ccc(F)cc1`: the IC50 result in assay [1] was “in the range around 5.5 µM”. Consider `Clc1ccccc1Cn1cnc(-c2cc(-c3cn[nH]n3)ccn2)c1Br`, for which the IC50 entry in assay [1] was “in the range around 0.55 µM”. Regarding `Fc1[nH]nnc1-c1ccnc(-c2cn(Cc3cccc(Cl)c3Cl)cn2)c1`, in assay [1], the IC50 result was “in the range around 0.55 µM”. On to `Clc1ccc(Cn2cnc(-c3cc4[nH]nnc4cn3)c2)cc1Cl`, for which the IC50 entry in assay [1] is “in the range around 5.5 µM”. The same measure, in the same setting: the entry for `CC(C)(Cn1cnc(-c2cc(-c3c[nH]nn3)ccn2)c1)c1ccccc1Cl` is “in the range around 0.55 µM”; for `Cc1cccc(Cn2cnc(-c3cc(-c4c[nH]nn4)ccn3)c2)c1F` it is “in the range around 0.55 µM”; for `N#Cc1[nH]nnc1-c1ccnc(-c2cn(CCc3cccc4ccccc34)cn2)c1` it is “in the range around 0.55 µM”. Still for that read-out and setting: next, `Clc1ccc(-n2cnc(-c3cc4[nH]nnc4cn3)c2)cc1`: “in the range around 5.5 µM”.

In the case of `Cn1cnc(-c2cc(-c3nn[nH]c3F)ccn2)c1-c1ccc(F)cc1OCC1CC1`, the IC50 entry in assay [1] was “in the range around 5.5 µM”. For the compound `Clc1cccc(Cn2cnc(-c3cc(-c4c[nH]nn4)ccn3)c2)c1Cl`, the IC50 result in assay [1] was “in the range around 0.55 µM”. Take `Clc1ccccc1Cn1cnc(-c2cc(-c3c[nH]nn3)ccn2)c1`: the IC50 result in assay [1] and in assay [2] was “in the range around 0.55 µM” throughout. With `Clc1cccc(-n2cnc(-c3cc4[nH]nnc4cn3)c2)c1`, the figures for the IC50 result in assay [1] and in assay [2] were “in the range around 5.5 µM” and “in the range around 0.55 µM”, respectively. As to `Clc1cccc(Cn2cnc(-c3cc4[nH]nnc4cn3)c2)c1`, the IC50 entry in assay [1] is “in the range around 5.5 µM”.

For `Fc1[nH]nnc1-c1ccnc(-c2cn(CCc3cccc4ccccc34)cn2)c1`, in assay [1], the IC50 entry is “in the range around 0.55 µM”. Still for that read-out and setting: next, `c1ccc2c(c1)CCCC2Cn1cnc(-c2cc(-c3c[nH]nn3)ccn2)c1` (stereo not drawn): “in the range around 0.55 µM”; `Clc1cc(Cl)cc(-n2cnc(-c3cc4[nH]nnc4cn3)c2)c1`: “in the range around 5.5 µM”. In the case of `Clc1ccccc1-n1cnc(-c2cc3[nH]nnc3cn2)c1`, the IC50 result in assay [1] was “in the range around 5.5 µM”.
